Experimental data: US7314620B2, “Methods for diagnosis and treatment of PH domain signal transduction disorders” (New York University, priority 1995, dated 2008)
Several values for one entry are separate records, joined by “and”; a condition that tells them apart may be missing. Identical values can stand only once. Entries after “also recorded” stand apart in the source; their conditions may differ. Like-named read-outs stand apart in the source and are kept apart here.

Tests used:
SH2 domain of Lck = molecular target: T1, SH2 domain of Lck (Homo sapiens, UniProt P06239); assay: Equilibrium gel filtration control with SH2 domain; assay type: binding; details: low salt; 50 mM MOPS pH 6.8, 100 mM NaCl
T1 construct: Control experiments performed with the SH2 domain of Lck; made in house
T1 sequence (P06239 127-224 limits assumed): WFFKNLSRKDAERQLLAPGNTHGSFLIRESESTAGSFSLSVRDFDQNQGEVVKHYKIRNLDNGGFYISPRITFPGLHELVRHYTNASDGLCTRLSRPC

[1] = molecular target: T2, PLCδ-PH (PH domain of rat PLC-δ1) (Rattus norvegicus, UniProt P10688); assay: Isothermal titration calorimetry of inositol polyphosphate / PIP2 vesicle binding to PLCδ-PH; details: for Kd: read-out: KD
T2 construct: initiator methionine (N); made in house; host or cells: Escherichia coli (pET11a, T7 system)
T2 sequence (P10688 20-136): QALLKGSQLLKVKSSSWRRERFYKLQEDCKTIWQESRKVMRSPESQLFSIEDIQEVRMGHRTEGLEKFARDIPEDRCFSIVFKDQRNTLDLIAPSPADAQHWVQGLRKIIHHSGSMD
Protocol: The resulting titration curve was fit using Omega software (Wiseman et al., 1989).
All experiments utilized the OMEGA instrument from MicroCal (Wiseman, T. et al., Anal. Biochem. 179, 131-137, 1989), in the laboratory of Prof. Julian Sturtevant at Yale. Titrations were performed at 25° C. in 50 mM MOPS, 100 mM NaCl, pH 6.8 or 100 mM NH4OAc at pH 6.8. […] For each titration, PH domain solution was dialyzed exhaustively against the buffer used for dilution of highly concentrated stocks of ligand. Heats for dilution of the ligand solutions were determined in separate titrations of ligand into buffer solution present in the cell.
Higher concentrations were employed for weaker binding events. […] Stoichiometry, binding constant (Kβ) and ΔH were all allowed to float in the fitting procedure.
A titration curve such as that to an equation describing a simple-binding reaction (Wiseman, T. et al., Anal. Biochem. 179, 131-137, 1989). From this fit, values for the binding constant, stoichiometry and ΔH for the binding reaction are ascertained. […] Ferris, C. D. et al, Nature, 342, 87-89, 1989.

PLCδ-PH = molecular target: T3, PLCδ-PH (Rattus norvegicus, UniProt P10688); assay: Spin-column competition assay for 3H-I(145)P3 binding to PLCδ-PH
T3 construct: initiator methionine (N); made in house; host or cells: Escherichia coli (pET11a, T7 system)
T3 sequence (P10688 20-136): T2 sequence (P10688 20-136)
Protocol: A spin-column based competition assay was employed to determine relative affinities of other inositol polyphosphates for PLCδ-PH. […] The sample (40 μl) was then applied to a Biogel P6 gel filtration spin-column. […] Each curve represents the mean of two or more experiments.
The sample was then applied to a pre-spun 1 ml spin-column containing Biogel P6 desalting medium. The spin-column was then centrifuged for 4 minutes at 900 g. Essentially all of the protein was determined to pass through the column under these conditions, and no significant counts were seen to pass through the column in the absence of protein. After spinning, all of the material that passed through the column was added to scintillation fluid for counting. Counts were normalized to those obtained in the absence of competitor, and plotted as fraction of maximal binding. […]
Values for which a precise number is given represent the mean of at least two experiments.

[2] = test system: any PH domain (PLCδ-PH, Dyn-PH, PlecN-PH); assay: Centrifugation-based assay of PH domain binding to lipid vesicles; details: lipid at 5% in DMPC vesicles
Protocol: Attempts to detect PH domain association with lipid vesicles were performed exactly as described by Harlan, J. E. et al., Nature 371, 168-170, 1994. In addition to using the BCA protein assay reagent, for which lipid blanks were rather high compared with the values expected for the protein concentrations employed, we also measured OD278 of the supernatants after addition of SDS in order to detect removal of protein upon pelleting vesicles. […] Initially, we performed a centrifugation-based assay, using the conditions described by Harlan, J. E. et al., Nature 371, 168-170, 1994. […] Similarly, we were unable to detect association of any of the PH domains with the same vesicles by using size-exclusion chromatography to separate protein and lipid. Any complexes between the PH domains and these vesicles therefore form with low affinity and/or have fast dissociation kinetics, such that they dissociate in the separation methods employed.

[3] = ITC, PIP2 at 5% in DMPC vesicles

binding to vesicles (SH2 domain of Lck): also binds
PIP2 in the vesicle preparation available for PLCδ-PH binding (apparent stoichiometry) [1, 3]: 57%
Kd [1, 3]: 1000 nM and 950 nM
binding affinity in words ([1]; PIP2 in vesicles): submicromolar affinities
ΔG ([1]; individual titrations, 25° C): -8.22 kcal/M and -7.74 kcal/M
Stoichiometry n ([1]; individual titrations, 25° C, pH 6.8, quoted for IPn as the ligand, PIP2 in vesicles assuming 50% available): 0.88 ± 0.02 and 0.87 ± 0.02
Kd ([1]; individual titrations, 25° C, pH 6.8): 950 nM and 2120 nM
Kd (PLCδ-PH; PIP2: 5% in DMPC vesicles, assuming 50% available, read-out: KD from competition assay): ~400 nM
binding weaker than I(145)P3 (PLCδ-PH; relative to I(145)P3 binding to PLCδ-PH): two-fold weaker
binding to vesicles [2]: no binding
Substance: Phosphatidylinositol-(4,5)-bisphosphate [PIP2]
ΔH ([1]; individual titrations, 25° C): -13.6 ± 0.4 kcal/M and -17.4 ± 0.4 kcal/M
ΔS ([1]; individual titrations, 25° C): −18.1 cal · M^−1 · K^−1 and −32.4 cal · M^−1 · K^−1
competition for I(145)P3 binding by lipid vesicles (PLCδ-PH; lipid at 5% in DMPC vesicles or pure DMPC, assuming 50% of lipid on the surface): almost as effective as that seen with unlabelled I(145)P3; also recorded: as effectively as can GPIP2
